Results published in US9834564B2, “Substituted quinolines as PDE-10 inhibitors” (priority 2010, dated 2017).
Where two headings read alike, the source gives them in different places.

How the values were obtained:
[1] = biological target: recombinant human PDE-10 enzyme (PDE-10A) (Homo sapiens (Human), UniProt Q9Y233); assay: IMAP PDE Fluorescence Polarization assay, human PDE-10 inhibition (enzyme assay); assay type: biochemical
Experimental: In one embodiment, the compounds provided herein were assayed for their ability to inhibit human PDE-10A. In one embodiment, the activities of the compounds were determined using the Molecular Devices IMAP PDE Fluorescence Polarization assay using recombinant human PDE-10 enzyme expressed in a baculoviral system. Briefly, 10 μL of a compound (0.2 nM-20 μM) was added to either a 96-well half area black plate or a 384-well black plate along with 10 μL of Fluorescein-labeled cAMP/cGMP substrate as per manufacturer's instructions and 10 μL of PDE enzyme (activity 0.1 U). Following a 40-minute incubation at 37° C., 60 μL of IMAP binding reagent was added. […] The data was analyzed using Prism Software (GraphPad Inc, San Diego, Calif.).

[2] = biological target: HEK293 cells over-expressing PDE-10A (Homo sapiens (Human), UniProt Q9Y233); assay: whole cell PDE-10 assay, intracellular cGMP in HEK293 cells over-expressing PDE-10A; assay type: cell-based; settings: concentration elevating intracellular cyclic nucleotide 300% above baseline; HEK293 over-expressing PDE-10A, 30 min compound, 200 μM sodium nitroprusside 2 min
[3] = recombinant human PDE-10, fluorescein-labeled cAMP/cGMP substrate, 40 min at 37° C.

recombinant human PDE-10 enzyme (PDE-10A), sequence (Q9Y233 whole entry): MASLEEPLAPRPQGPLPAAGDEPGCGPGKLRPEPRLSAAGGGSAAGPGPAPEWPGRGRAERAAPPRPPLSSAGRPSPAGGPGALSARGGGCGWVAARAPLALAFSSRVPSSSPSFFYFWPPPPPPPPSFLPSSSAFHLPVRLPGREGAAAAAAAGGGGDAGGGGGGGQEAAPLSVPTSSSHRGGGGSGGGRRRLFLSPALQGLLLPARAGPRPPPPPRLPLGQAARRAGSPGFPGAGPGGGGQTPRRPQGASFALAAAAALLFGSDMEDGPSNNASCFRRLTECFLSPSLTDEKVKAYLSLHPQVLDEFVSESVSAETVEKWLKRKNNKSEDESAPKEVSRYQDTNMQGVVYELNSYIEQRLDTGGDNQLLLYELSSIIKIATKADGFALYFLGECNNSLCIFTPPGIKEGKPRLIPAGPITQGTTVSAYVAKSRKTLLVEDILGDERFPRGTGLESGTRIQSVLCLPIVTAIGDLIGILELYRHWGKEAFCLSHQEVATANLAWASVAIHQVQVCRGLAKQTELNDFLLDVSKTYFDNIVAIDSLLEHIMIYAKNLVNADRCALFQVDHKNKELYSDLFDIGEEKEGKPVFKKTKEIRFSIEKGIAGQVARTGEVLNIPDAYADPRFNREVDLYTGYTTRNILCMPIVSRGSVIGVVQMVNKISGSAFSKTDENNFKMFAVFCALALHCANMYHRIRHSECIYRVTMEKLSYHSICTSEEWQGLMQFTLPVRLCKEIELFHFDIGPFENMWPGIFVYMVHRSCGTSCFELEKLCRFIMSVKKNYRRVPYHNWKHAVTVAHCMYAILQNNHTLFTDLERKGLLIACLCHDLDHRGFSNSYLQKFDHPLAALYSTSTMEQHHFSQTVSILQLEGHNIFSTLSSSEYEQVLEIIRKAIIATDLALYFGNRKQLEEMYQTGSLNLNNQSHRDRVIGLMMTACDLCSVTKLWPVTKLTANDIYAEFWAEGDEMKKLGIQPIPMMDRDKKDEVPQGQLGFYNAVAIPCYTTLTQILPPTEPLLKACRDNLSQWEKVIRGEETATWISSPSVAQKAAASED
HEK293 cells over-expressing PDE-10A, sequence (Q9Y233 whole entry): as above

Row | Compound | IC50 [1, 3] | PDE-10 EC300 (μM) [2] | IC50 [1]
1 | Cc1nc(CCc2nc3c4cccnc4ccc3n2C)nc2c1CCC2 [Compound 210] | < 0.5 µM | ++++ (IC50 or EC300<0.5 μM ++++) | 
2 | Cn1c(CCc2ccc3ccccc3n2)nc2c3ncccc3ccc21 [Compound 155] | < 0.5 µM | +++ (0.5<IC50 or EC300<1 μM +++) | 
3 | Cn1cc(-c2ccccc2F)nc1CCc1cnc2ccccc2n1 [Compound 48] | < 0.5 µM | ++++ (IC50 or EC300<0.5 μM ++++) | 
4 | Cc1nc(CCc2nc3c4cccnc4ccc3n2C)nc(C)c1Cl [Compound 208] | < 0.5 µM | ++++ (IC50 or EC300<0.5 μM ++++) | 
5 | O=c1[nH]c(CCc2nc(-c3ccccc3)c[nH]2)nc2ccncc12 [Compound 5] | < 0.5 µM | +++ (0.5<IC50 or EC300<1 μM +++) | 
6 | COc1nc2ccccc2nc1CCc1nc2c3cccnc3ccc2n1C [Compound 144] | < 0.5 µM | ++ (1<IC50 or EC300<10 μM ++) | 
7 | c1ccc(-c2c[nH]c(CCc3cnc4cccnc4n3)n2)cc1 [Compound 16] | < 0.5 µM | +++ (0.5<IC50 or EC300<1 μM +++) | 
8 | Cn1cc(-c2ccccc2)nc1CCc1nc2ccccc2c(=O)[nH]1 [Compound 8] | > 10 µM | ++++ (IC50 or EC300<0.5 μM ++++) | 
9 | O=c1oc(CCc2nc(-c3ccccc3)c[nH]2)nc2ccccc12 [Compound 82] | 1 to 10 µM | + (IC50 or EC300>10 μM +) | 
10 | Cn1cc(-c2cccc(F)c2F)nc1CCc1cnc2ccccc2n1 [Compound 50] | < 0.5 µM | ++++ (IC50 or EC300<0.5 μM ++++) | 
11 | Cn1cc(-c2ccco2)nc1CCc1ccc2ccccc2n1 [Compound 39] | < 0.5 µM | ++++ (IC50 or EC300<0.5 μM ++++) | 
12 | c1ccc(-c2c[nH]c(Sc3cnc4ccccc4n3)n2)cc1 [Compound 124] | < 0.5 µM | ++ (1<IC50 or EC300<10 μM ++) | 
13 | c1ccc2c(c1)ccc1[nH]c(CCc3cnc4ccccc4n3)nc12 [Compound 103] | < 0.5 µM | + (IC50 or EC300>10 μM +) | 
14 | Cc1ncc(C)c2nc(CCc3nc4c5cccnc5ccc4n3C)ccc12 [Compound 165] | < 0.5 µM |  | 
15 | c1ccc(-c2c[nH]c(CNc3cnc4ccccc4n3)n2)cc1 [Compound 121] | 1 to 10 µM |  | 
16 | C(=C\c1cccs1)/c1nc(-c2ccccc2)c[nH]1 [Compound 28] | > 10 µM |  | 
17 | c1ccc2nc(CCc3ccc4ccc5cccnc5c4n3)ccc2c1 [Compound 159] | < 0.5 µM |  | 
18 | c1ccc2nc(CCc3nc4c(ccc5ncccc54)[nH]3)ccc2c1 [Compound 86] | < 0.5 µM |  | 
19 | Cc1ncc(C)n2nc(CCc3ccc4ccc5ccccc5c4n3)nc12 [Compound 130] | 0.5 to 1 µM |  | 
20 | Cc1c(CCc2ccc3cccnc3n2)nc2c3cccnc3ccn12 [Compound 197] | < 0.5 µM |  | 
21 | Cn1c(CCc2cnc3ccccc3n2)nc2ccccc21 [Compound 26] | 1 to 10 µM |  | 

Row | Compound | IC50 [1, 3] | PDE-10 EC300 (μM) [2] | IC50 [1]
22 | O=c1[nH]c(CCc2nc(-c3ccccc3)c(-c3ccccc3)o2)nc2ccccc12 [Compound 111] | 1 to 10 µM |  | 
23 | Cc1c(CCc2ccc3ncccc3n2)nc2c3cccnc3ccn12 [Compound 201] | < 0.5 µM |  | 
24 | Cc1ccc2ccc(CCc3cn4ccc5ncccc5c4n3)nc2n1 [Compound 196] | 0.5 to 1 µM |  | 
25 | Cn1c(CCc2ccc3ccccc3n2)nc2ccccc21 [Compound 25] | 1 to 10 µM |  | 
26 | c1ccc2nc(CCc3cn4ccc5ncccc5c4n3)cnc2c1 [Compound 189] | < 0.5 µM |  | 
27 | c1ccc(-c2c[nH]c(CCc3ccc4ccccc4c3)n2)cc1 [Compound 35] | > 10 µM |  | 
28 | Cc1ccc(C)c2nc(CCc3nc4c(ccc5ncccc54)[nH]3)cnc12 [Compound 87] | < 0.5 µM |  | 
29 | O=c1[nH]c(CCc2ccc(-c3ccccc3)s2)nc2ccccc12 [Compound 37] | > 10 µM |  | 
30 | Cn1c(CCc2ccc3ccccc3n2)nc2c3ccccc3ccc21 [Compound 90] | < 0.5 µM |  | 
31 | Fc1cccc(-c2c[nH]c(CCc3ccc4ccccc4n3)n2)c1F [Compound 71] | 0.5 to 1 µM |  | 
32 | COc1cccc2ccc(CCc3nc4c5ncccc5ccc4n3C)nc12 [Compound 160] | 0.5 to 1 µM |  | 
33 | Cc1c(CCc2ccc3cc(F)cnc3n2)nc2c3cccnc3ccn12 [Compound 183] | < 0.5 µM |  | 
34 | O=c1[nH]c(CCc2nc3ccccc3s2)nc2ccccc12 [Compound 112] | > 10 µM |  | 
35 | Cc1ncc(C)n2nc(CCc3ccc4ccc5c(c4n3)NCCC5)nc12 [Compound 137] | < 0.5 µM |  | 
36 | Cc1ncc(C)c2nc(CCc3nc4c(ccc5ncccc54)[nH]3)ccc12 [Compound 166] | < 0.5 µM |  | 
37 | c1ccc2nc(CCc3nc4c5cccnc5ccn4n3)ccc2c1 [Compound 147] | < 0.5 µM |  | 
38 | O=c1[nH]c(/C=C/c2ccc(-c3ccccc3)s2)nc2ccccc12 [Compound 38] | > 10 µM |  | 
39 | Cn1c(CCc2ccc3ccccc3n2)nc2ccc3ccccc3c21 [Compound 91] | 1 to 10 µM |  | 
40 | Cn1c(CCc2cnc3ccccc3n2)nc2c3cccnc3ccc21 [Compound 84] | < 0.5 µM |  | 
41 | Cc1nc2ccccc2nc1CCc1nc2ccccc2[nH]1 [Compound 106] | 0.5 to 1 µM |  | 
42 | Cc1cnc2nc(CCc3nc4c5cccnc5ccn4c3C)ccc2c1 [Compound 184] | < 0.5 µM |  | 

Row | Compound | IC50 [1, 3] | PDE-10 EC300 (μM) [2] | IC50 [1]
43 | Cc1cnc2nc(CCc3nc4c5cccnc5ccn4n3)ccc2c1 [Compound 180] | < 0.5 µM |  | 
44 | COc1cc2nc(CCc3nc(-c4ccccc4)c[nH]3)[nH]c(=O)c2cc1OC [Compound 7] | > 10 µM |  | 
45 | O=c1[nH]c(CCc2nc(-c3ccccc3C(F)(F)F)c[nH]2)nc2ccccc12 [Compound 62] | 1 to 10 µM |  | 
46 | c1cnc2nc(CCc3cn4ccc5ncccc5c4n3)ccc2c1 [Compound 195] | 1 to 10 µM |  | 
47 | c1cnc2ccc(CCc3cn4ccc5ncccc5c4n3)nc2c1 [Compound 199] | < 0.5 µM |  | 
48 | Cn1c(CCc2ccc3cnccc3n2)nc2c3ncccc3ccc21 [Compound 163] | < 0.5 µM |  | 
49 | c1ccc(-c2ncc(CCc3cnc4ccccc4n3)o2)cc1 [Compound 80] | > 10 µM |  | 
50 | c1ccc2nc(CCc3cn4ccccc4n3)cnc2c1 [Compound 119] | 1 to 10 µM |  | 
51 | Cn1c(/C=C/c2nc(-c3ccccc3)c[nH]2)nc2ccccc2c1=O [Compound 9] |  |  | > 10 µM
52 | COc1cccc2ccc(CCc3nc4c5cccnc5ccc4n3C)nc12 [Compound 161] | < 0.5 µM |  | 
53 | Fc1cc2[nH]c(CCc3cnc4ccccc4n3)nc2cc1Cl [Compound 101] | 0.5 to 1 µM |  | 
54 | Cc1nc(CCc2nc3c4cccnc4ccc3n2C)nc2ccccc12 [Compound 209] | < 0.5 µM |  | 
55 | O=c1[nH]c(CCc2nc3ccccc3[nH]2)nc2ccccc12 [Compound 21] | 1 to 10 µM |  | 
56 | Cc1cnc(C)n2nc(CCc3ccc4ccccc4n3)nc12 [Compound 126, 2-(2-(5,8-Dimethyl-[1,2,4]triazolo[1,5-c]pyrimidin-2-yl)ethyl)quinoline] | < 0.5 µM |  | 
57 | Cn1cc(-c2ccccc2)nc1CCc1ncc2ccccc2n1 [Compound 18] | < 0.5 µM |  | 
58 | c1coc(-c2c[nH]c(CCc3ccc4ccccc4n3)n2)c1 [Compound 66] | 0.5 to 1 µM |  | 
59 | Cc1ccc(C)c2nc(CCc3nc4ccc5ncccc5c4n3C)cnc12 [Compound 89] | < 0.5 µM |  | 
60 | O=c1[nH]c(CCc2nc(-c3ccc(Cl)cc3)c[nH]2)nc2ccccc12 [Compound 54] | 1 to 10 µM |  | 
61 | c1ccc(-c2c[nH]c(CCc3ncc4ccccc4n3)n2)cc1 [Compound 13] | < 0.5 µM |  | 
62 | Cn1c(CCc2cnc3ccccc3n2)nc2c3c(ccc21)NCCC3 [Compound 192] | < 0.5 µM |  | 
